The target of one assay is T1, Caspase-6 (Homo sapiens, UniProt P55212).
T1 sequence (P55212 whole entry): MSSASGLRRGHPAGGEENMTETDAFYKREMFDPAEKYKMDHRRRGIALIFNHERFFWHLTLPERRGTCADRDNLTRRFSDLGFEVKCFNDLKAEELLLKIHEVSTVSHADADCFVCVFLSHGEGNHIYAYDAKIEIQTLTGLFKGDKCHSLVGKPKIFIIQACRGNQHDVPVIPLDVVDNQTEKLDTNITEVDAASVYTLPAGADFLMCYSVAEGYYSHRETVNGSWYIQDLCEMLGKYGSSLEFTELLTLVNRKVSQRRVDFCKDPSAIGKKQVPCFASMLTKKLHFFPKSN
Put plainly: human caspase-6 inhibitors, dose response, biochemical, VEID-R110 fluorescence, cherry-pick (AID 720632).

Assay [1] in a line: cells. The assay is classed as functional, cell-based.
A short description of assay [2]: cells. It is filed as functional, cell-based. This is another data set of the same source.
The nature of assay [3]: human group III sPLA2 inhibitors, dose response, biochemical, QFRET, IC50 (AID 743457).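 Also: green fluorescence rise as the enzyme cleaves BODIPY PC-A2 in liposomes; potency for inhibition of the enzyme.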
Assay [4] can be described thus: ADAM10 protease inhibitors, dose response, selectivity assay for ADAM17 exosite inhibitor project, biochemical, FRET peptide substrate, recombinant human ADAM10 (AID 743259).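 Also: ADAM10 enzyme cleaving a FRET peptide substrate.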
The target in assay [5] is Disintegrin and metalloproteinase domain-containing protein 17 (Homo sapiens, UniProt P78536). Put plainly: exosite inhibitors of ADAM17, dose response, biochemical (AID 743260).
Sequence of Disintegrin and metalloproteinase domain-containing protein 17 (P78536 whole entry, the tested form may be a part): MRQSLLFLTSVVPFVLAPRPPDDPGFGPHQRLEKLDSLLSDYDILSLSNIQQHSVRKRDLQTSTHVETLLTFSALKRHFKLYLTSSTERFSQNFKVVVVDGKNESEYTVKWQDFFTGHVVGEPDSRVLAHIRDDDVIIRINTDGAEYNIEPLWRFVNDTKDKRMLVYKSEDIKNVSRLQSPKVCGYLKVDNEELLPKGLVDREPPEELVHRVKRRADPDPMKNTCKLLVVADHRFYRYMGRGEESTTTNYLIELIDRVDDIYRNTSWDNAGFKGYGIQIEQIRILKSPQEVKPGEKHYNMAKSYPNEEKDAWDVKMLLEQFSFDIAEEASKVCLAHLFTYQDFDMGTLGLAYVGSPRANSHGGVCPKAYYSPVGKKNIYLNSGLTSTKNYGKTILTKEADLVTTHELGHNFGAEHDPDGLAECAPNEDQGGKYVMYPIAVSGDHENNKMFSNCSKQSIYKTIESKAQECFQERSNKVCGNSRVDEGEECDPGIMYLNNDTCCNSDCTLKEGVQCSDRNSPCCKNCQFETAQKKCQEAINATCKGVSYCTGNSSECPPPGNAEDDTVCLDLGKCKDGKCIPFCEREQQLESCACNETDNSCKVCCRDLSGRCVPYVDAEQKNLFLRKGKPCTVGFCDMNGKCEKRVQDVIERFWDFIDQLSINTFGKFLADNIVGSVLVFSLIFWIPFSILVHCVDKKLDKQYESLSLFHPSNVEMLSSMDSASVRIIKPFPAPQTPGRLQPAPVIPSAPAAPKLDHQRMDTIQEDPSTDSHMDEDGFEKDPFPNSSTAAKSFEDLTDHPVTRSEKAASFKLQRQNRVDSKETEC
In assay [6] the target is T2, Oxysterols receptor LXR-beta (Homo sapiens, UniProt P55055).
T2 sequence (P55055 whole entry): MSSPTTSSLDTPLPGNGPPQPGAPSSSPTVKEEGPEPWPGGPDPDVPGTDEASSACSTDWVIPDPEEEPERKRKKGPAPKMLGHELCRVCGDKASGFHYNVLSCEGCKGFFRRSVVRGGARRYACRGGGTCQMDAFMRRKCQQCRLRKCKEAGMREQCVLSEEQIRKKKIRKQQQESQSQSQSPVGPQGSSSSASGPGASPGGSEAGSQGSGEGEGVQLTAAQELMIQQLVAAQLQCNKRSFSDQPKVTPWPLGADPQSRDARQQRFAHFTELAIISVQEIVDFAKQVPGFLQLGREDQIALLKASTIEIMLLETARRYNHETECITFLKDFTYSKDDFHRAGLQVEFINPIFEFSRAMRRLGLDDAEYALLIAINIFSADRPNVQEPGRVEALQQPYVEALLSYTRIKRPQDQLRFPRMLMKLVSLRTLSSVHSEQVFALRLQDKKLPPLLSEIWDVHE
The assay is classed as functional, cell-based.

Assay [7] is described as follows: cells.
Assay [8] addresses T3, Sentrin-specific protease 6 (Homo sapiens, UniProt Q9GZR1).
T3 sequence (Q9GZR1 whole entry): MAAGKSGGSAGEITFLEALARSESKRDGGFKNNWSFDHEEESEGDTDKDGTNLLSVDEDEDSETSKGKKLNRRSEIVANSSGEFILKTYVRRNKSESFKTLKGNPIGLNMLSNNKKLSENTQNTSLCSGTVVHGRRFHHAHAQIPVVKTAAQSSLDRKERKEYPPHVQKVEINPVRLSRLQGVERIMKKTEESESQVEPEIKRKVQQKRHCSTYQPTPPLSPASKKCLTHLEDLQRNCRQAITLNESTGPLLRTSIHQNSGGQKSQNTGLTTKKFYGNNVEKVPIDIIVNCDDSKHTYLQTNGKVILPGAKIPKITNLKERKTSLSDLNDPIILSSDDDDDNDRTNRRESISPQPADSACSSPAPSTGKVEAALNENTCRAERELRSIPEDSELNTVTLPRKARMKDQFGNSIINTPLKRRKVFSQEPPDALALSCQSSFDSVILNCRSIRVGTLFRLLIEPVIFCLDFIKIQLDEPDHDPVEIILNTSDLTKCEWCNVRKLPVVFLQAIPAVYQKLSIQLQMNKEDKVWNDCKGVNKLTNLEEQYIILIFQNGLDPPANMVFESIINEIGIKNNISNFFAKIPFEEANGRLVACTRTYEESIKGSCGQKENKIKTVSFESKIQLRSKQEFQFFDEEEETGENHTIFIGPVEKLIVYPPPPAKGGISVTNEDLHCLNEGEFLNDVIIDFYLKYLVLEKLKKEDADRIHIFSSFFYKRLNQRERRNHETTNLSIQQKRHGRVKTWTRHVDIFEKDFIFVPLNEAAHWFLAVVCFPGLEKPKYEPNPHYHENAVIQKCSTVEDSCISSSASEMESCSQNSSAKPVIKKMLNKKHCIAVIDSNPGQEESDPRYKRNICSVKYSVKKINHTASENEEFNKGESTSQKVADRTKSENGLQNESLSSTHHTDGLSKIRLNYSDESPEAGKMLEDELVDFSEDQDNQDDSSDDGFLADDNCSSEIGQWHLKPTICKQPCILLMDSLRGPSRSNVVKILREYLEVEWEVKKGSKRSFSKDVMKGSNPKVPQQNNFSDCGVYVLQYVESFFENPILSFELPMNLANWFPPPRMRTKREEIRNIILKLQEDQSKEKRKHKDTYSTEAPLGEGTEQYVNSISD
It is filed as functional.

The target of assay [9] is T4, Sentrin-specific protease 7 (Homo sapiens, UniProt Q9BQF6).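 Also: Luminescence-based dose-response confirmation of ultra-high-throughput screening hits, measuring inhibition of SENP7.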
T4 sequence (Q9BQF6 whole entry): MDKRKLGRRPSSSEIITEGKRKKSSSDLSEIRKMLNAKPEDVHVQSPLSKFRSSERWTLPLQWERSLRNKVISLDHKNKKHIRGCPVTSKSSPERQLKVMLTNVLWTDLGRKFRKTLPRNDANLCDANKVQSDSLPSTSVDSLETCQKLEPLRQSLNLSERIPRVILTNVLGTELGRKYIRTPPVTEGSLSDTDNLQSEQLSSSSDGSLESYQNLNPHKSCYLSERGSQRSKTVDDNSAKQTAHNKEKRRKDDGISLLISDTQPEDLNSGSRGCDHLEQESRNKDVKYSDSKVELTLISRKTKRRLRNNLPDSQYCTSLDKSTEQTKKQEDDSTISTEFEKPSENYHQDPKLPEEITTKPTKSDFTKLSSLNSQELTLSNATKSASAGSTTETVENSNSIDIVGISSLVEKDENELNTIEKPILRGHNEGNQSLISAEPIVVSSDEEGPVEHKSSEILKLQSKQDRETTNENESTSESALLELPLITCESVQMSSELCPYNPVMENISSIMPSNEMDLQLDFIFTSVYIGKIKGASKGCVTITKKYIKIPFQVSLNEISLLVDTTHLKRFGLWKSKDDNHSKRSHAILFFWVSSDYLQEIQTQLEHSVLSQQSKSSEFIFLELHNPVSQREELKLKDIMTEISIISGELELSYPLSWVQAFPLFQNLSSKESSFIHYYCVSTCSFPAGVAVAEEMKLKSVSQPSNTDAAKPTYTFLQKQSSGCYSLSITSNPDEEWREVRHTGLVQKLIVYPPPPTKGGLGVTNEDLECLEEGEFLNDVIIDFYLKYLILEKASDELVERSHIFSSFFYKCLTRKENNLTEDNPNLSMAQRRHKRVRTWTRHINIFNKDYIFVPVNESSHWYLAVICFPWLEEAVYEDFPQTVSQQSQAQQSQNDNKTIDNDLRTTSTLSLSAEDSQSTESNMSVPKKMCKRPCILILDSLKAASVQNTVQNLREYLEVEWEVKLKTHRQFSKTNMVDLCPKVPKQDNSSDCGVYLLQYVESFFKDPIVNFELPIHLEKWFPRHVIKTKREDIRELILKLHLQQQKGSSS
It is filed as functional.

In the next assay the target is T5, Caspase-3 (Homo sapiens, UniProt P42574).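 Also: Dose-response selectivity test against caspase-3 for candidate inhibitors of sentrin-specific proteases (SENPs).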
T5 sequence (P42574 whole entry): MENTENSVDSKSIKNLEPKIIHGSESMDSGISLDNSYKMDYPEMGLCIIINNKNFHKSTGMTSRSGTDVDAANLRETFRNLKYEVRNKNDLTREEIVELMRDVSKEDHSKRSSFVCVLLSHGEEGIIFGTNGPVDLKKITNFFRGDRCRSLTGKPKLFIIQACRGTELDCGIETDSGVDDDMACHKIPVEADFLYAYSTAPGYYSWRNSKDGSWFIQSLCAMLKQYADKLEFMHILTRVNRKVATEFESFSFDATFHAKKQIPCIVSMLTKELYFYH
The assay is classed as functional.

The target of assay [10] is T6, Sentrin-specific protease 8 (Homo sapiens, UniProt Q96LD8).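 Also: luminescence read-out of SENP8 inhibition, dose-response confirmation following an ultra-high-throughput screen.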
T6 sequence (Q96LD8 whole entry): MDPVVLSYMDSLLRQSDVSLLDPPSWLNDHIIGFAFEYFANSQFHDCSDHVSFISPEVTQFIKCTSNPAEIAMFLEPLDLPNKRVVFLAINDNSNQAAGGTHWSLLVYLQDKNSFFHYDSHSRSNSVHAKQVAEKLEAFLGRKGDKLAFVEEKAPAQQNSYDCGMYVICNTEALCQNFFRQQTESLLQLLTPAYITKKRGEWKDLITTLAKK
It is filed as functional.

The nature of assay [11]: Luminescence-based cell-based high throughput dose response assay to identify activators of the DAF-12 from the parasite S. stercoralis (ssDAF-12). It is filed as functional.
For assay [12], the target named is T2, Oxysterols receptor LXR-beta. Put plainly: LXR agonists, Gal4 luciferase reporter, dose response, counter-screen for ssDAF-12 agonist project, cell-based, luminescence, HEK293, S. stercoralis campaign (AID 720737). The assay is classed as functional. Particulars: read-out: IC50 (the source's name).
Assay [13] is described as follows: A549 cell cytotoxicity, dose response, cytotoxicity control, plate reader, cherry-pick, antagonist series (AID 743412). The assay is classed as functional, cell-based.
Assay [14] in a line: LGR2 antagonists, dose response, cell-based, HEK293, CRE-luciferase reporter, cherry pick, set 2 (AID 743343).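 Also: transfected cells were stimulated with diluted bursicon conditioned medium after compound addition.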 It is filed as functional. (In general: Reporter assays use an easily measured gene product as a stand-in for the process of interest.)
The nature of assay [15]: MC4R antagonists, dose response, counter-screen for LGR2 antagonist project, cell-based, plate reader, cherry pick (AID 743444).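 Also: transfected HEK 293 cells stimulated with alpha-MSH peptide; potency of inhibitors of the alpha-MSH evoked signal.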 The assay is classed as functional. On the technique in general: The purpose of a counterscreen is to sort out artefacts and off-target activity.
The target in the next assay is T7, Streptokinase A (Streptococcus pyogenes serotype M1, UniProt P10520).
T7 sequence (P10520 whole entry): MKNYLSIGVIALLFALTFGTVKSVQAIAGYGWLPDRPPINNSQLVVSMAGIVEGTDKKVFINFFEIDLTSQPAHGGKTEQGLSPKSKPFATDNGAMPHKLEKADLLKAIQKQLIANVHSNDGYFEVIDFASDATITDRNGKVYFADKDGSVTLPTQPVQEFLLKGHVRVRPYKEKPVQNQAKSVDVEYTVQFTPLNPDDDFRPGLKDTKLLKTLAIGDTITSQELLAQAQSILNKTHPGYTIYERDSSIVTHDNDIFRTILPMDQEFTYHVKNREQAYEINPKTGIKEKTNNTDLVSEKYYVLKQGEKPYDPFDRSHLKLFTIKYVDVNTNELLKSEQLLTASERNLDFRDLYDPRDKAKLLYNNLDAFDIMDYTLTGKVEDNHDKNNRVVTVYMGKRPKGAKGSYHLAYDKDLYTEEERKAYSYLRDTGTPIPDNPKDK
Put plainly: S. pyogenes streptokinase expression inhibitors, potency, dose response, plasminogen activation absorbance, OD405 (AID 1914).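 Also: secreted streptokinase activity via plasminogen activation per viability signal from cell pellet.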 It is filed as functional, Streptococcus pyogenes M1 GAS.

In assay [16] the test system is Streptococcus sp. 'group A'. Put plainly: growth inhibition of control SK(-) GAS strain, dose response, counter-screen for streptokinase expression inhibitor project, luminescence, kanamycin, BacTiterGlo, confirmation (AID 1900). It is filed as functional, organism-based.
For another assay, the system named is Streptococcus. Put plainly: Group A Streptococcus viability loss, dose response, counter-screen for streptokinase expression inhibitor project, luminescence, BacTiterGlo (AID 1915).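 Also: potency for reduction of bacterial viability or growth.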 It is filed as functional, organism-based.

Calls of active or inactive are those of the source. Some results are limits rather than exact numbers.

Take `COc1cc(-c2noc(C)c2/C=C/c2ccc(C(=O)O)cc2)cc(OC)c1OC`: on Caspase-6, the AC50 was 23.2 µM (active).

For `CC1OC(NCCc2ccccc2)C(O)C(O)C1O` (stereo not given), the IC50 in “cells [1]” is > 29.9 µM (inactive). The EC50 in “cells [2]” is > 29.9 µM (inactive).

As to `Cc1csc(NC(=S)NC(=O)c2ccccc2)n1`, in [3], the IC50 is > 122 µM (inactive).

For `Cc1nc2ccc(S(=O)(=O)NCC(=O)NCc3ccc4c(c3)OCO4)cc2s1`, the IC50 in [4] and in assay [5] was > 69.5 µM (inactive) throughout.

As for `Nc1c(Br)cc2oc(-c3ccccc3)nc2c1Br`, the EC50 (in assay [6]; in the assay “cells [7]”) was > 67.5 µM (inactive) each time.

As to `Cc1ccc(-c2cc(-c3ccccc3)no2)cc1`, the concentration for half-maximal inhibition (IC50) in [8] was 18.6 µM (active); in [9] it was 14.3 µM (active); at Caspase-3, 21.7 µM (active); in [10], 23.7 µM (active). Also, the EC50 (in assay [6]; in “cells [7]”) was > 67.5 µM (inactive) each time.

As to `Cc1ccc(C(=O)Nc2ccc3c(c2)OCO3)cc1`, in [11], the IC50 was > 67.5 µM (inactive). The EC50 in assay [12] is > 67.5 µM (inactive).

Consider `CNCC(O)Cn1c2c(c3ccccc31)CCCC2` (stereo not given), for which the IC50 in assay [11] is > 67.6 µM (inactive). Moreover, in assay [12], the EC50 is > 67.6 µM (inactive).

With `O=C(CN1C(=O)c2ccccc2S1(=O)=O)Nc1cc(S(=O)(=O)N2CCCCC2)ccc1Cl`, the IC50 in assay [4] and in assay [5] was > 69.5 µM (inactive) in each case.

As to `CC(C)(C)[S+]([O-])N1Cc2cc(C(=O)NCC(F)(F)F)nc(-c3cccc(-c4cccc(F)c4)c3)c2[C@H]1CCO` (stereo not given in full), the figures for the IC50 in assay [4] and in assay [5] were > 7.72 µM (active) and > 69.5 µM (inactive), respectively.

As for `Cc1ccccc1-c1ccc([C@H]2[C@@H](CO)N3CCCCN(S(=O)(=O)c4ccc(F)cc4)C[C@@H]23)cc1`, the AC50 in [13] is 19.8 µM (active); in [14] it was 9.92 µM (active); in assay [15] it was 8.3 µM (active).

Regarding `NNC(=O)/C(=N/Nc1ccccc1)S(=O)(=O)c1ccc(Cl)cc1`, the values for the EC50 (on Streptokinase A; in assay [16]; with Streptococcus) were > 150 µM (not active), 6.91 µM (active) and > 150 µM (not active), respectively. In addition, the IC50 in assay [3] was 47.3 µM (inactive).

As for `CCc1nnc(N/N=C/c2cc(C)c(C)cc2C)n1N`, at Caspase-6, the AC50 was 39.8 µM (active).

The term AC50 denotes the concentration giving half of the maximal activity seen. One may read the IC50 as the concentration needed to halve the response being measured.

(Values after ChEMBL document CHEMBL1201862, “PubChem BioAssay data set” (2004).)
